Key:
ULK2 = ULK2 (Homo sapiens, UniProt Q8IYT8); assay: ICKP radiometric kinase assay; format: biochemical; details: read-out: % AR (% kinase activity remaining)
PAK6 = PAK6 (Homo sapiens, UniProt Q9NQU5); assay: ICKP radiometric kinase assay; format: biochemical; details: read-out: % AR (% kinase activity remaining)
HER4 = HER4 (Homo sapiens, UniProt Q15303); assay: ICKP radiometric kinase assay; format: biochemical; details: read-out: % AR (% kinase activity remaining)
p38 gamma = p38 gamma (Homo sapiens, UniProt P53778); assay: ICKP radiometric kinase assay; format: biochemical; details: read-out: % AR (% kinase activity remaining)
PDK1 = PDK1 (Homo sapiens, UniProt O15530); assay: ICKP radiometric kinase assay; format: biochemical; details: read-out: % AR (% kinase activity remaining)
NEK2a = NEK2a (Homo sapiens, UniProt P51955); assay: ICKP radiometric kinase assay; format: biochemical; details: read-out: % AR (% kinase activity remaining)
ZR-75-1 = assay: Cell proliferation assay (CellTiter-Glo); details: Homo sapiens, ZR-75-1, 72 h, read-out: 3-day antiproliferative IC50
CDK7 = CDK7 (Homo sapiens, UniProt P50613); assay: Adapta kinase assay; details: Adapta assay at [ATP]=apparent Km; read-out: Biochemical IC50 CDK7
MINK1 = MINK1 (Homo sapiens, UniProt Q8N4C8); assay: ICKP radiometric kinase assay; format: biochemical; details: read-out: % AR (% kinase activity remaining)
CK1 gamma 2 = CK1 gamma 2 (Homo sapiens, UniProt P78368); assay: ICKP radiometric kinase assay; format: biochemical; details: read-out: % AR (% kinase activity remaining)
PAK5 = PAK5 (Homo sapiens, UniProt Q9P286); assay: ICKP radiometric kinase assay; format: biochemical; details: read-out: % AR (% kinase activity remaining)
MST2 = MST2 (Homo sapiens, UniProt Q13188); assay: ICKP radiometric kinase assay; format: biochemical; details: read-out: % AR (% kinase activity remaining)
TTK = TTK (Homo sapiens, UniProt P33981); assay: ICKP radiometric kinase assay; format: biochemical; details: read-out: % AR (% kinase activity remaining)
PKC alpha = PKC alpha (Homo sapiens, UniProt P17252); assay: ICKP radiometric kinase assay; format: biochemical; details: read-out: % AR (% kinase activity remaining)
HIPK1 = HIPK1 (Homo sapiens, UniProt Q86Z02); assay: ICKP radiometric kinase assay; format: biochemical; details: read-out: % AR (% kinase activity remaining)
ERK5 = ERK5 (Homo sapiens, UniProt Q13164); assay: ICKP radiometric kinase assay; format: biochemical; details: read-out: % AR (% kinase activity remaining)
DYRK3 = molecular target: T1, DYRK3 (Homo sapiens, UniProt O43781); assay: ICKP radiometric kinase assay; format: biochemical; details: for remaining activity at 1 µM: read-out: % AR (% kinase activity remaining)
T1 sequence (O43781 1-588): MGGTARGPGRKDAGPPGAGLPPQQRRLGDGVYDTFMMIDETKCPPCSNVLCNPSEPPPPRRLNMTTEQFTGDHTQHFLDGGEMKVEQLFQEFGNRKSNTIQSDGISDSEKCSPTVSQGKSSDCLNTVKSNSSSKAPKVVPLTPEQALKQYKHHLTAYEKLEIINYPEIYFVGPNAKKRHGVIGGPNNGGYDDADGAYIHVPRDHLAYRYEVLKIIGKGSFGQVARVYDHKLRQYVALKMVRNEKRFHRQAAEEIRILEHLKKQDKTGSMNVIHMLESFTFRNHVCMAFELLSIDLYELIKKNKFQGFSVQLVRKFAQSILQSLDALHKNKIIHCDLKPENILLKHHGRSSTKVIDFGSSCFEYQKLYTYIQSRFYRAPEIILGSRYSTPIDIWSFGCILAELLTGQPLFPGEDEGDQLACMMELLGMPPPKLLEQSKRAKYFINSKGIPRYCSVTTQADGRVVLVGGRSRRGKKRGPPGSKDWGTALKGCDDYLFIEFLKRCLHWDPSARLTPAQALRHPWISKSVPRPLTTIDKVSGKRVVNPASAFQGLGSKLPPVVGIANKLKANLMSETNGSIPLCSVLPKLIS

RIPK2 = RIPK2 (Homo sapiens, UniProt O43353); assay: ICKP radiometric kinase assay; format: biochemical; details: for remaining activity at 1 µM: read-out: % AR (% kinase activity remaining)
IKK beta = IKK beta (Homo sapiens, UniProt O14920); assay: ICKP radiometric kinase assay; format: biochemical; details: read-out: % AR (% kinase activity remaining)
DDR2 = DDR2 (Homo sapiens, UniProt Q16832); assay: ICKP radiometric kinase assay; format: biochemical; details: read-out: % AR (% kinase activity remaining)
TrkA = TrkA (Homo sapiens, UniProt P04629); assay: ICKP radiometric kinase assay; format: biochemical; details: read-out: % AR (% kinase activity remaining)
BRK = BRK (Homo sapiens, UniProt Q13882); assay: ICKP radiometric kinase assay; format: biochemical; details: read-out: % AR (% kinase activity remaining)
MKK1 = MKK1 (Homo sapiens, UniProt Q02750); assay: ICKP radiometric kinase assay; format: biochemical; details: read-out: % AR (% kinase activity remaining)
TBK1 = TBK1 (Homo sapiens, UniProt Q9UHD2); assay: ICKP radiometric kinase assay; format: biochemical; details: read-out: % AR (% kinase activity remaining)
Aurora A = Aurora A (Homo sapiens, UniProt O14965); assay: ICKP radiometric kinase assay; format: biochemical; details: read-out: % AR (% kinase activity remaining)
PKB beta = PKB beta (Homo sapiens, UniProt P31751); assay: ICKP radiometric kinase assay; format: biochemical; details: read-out: % AR (% kinase activity remaining)
TGFBR1 = TGFBR1 (Homo sapiens, UniProt P36897); assay: ICKP radiometric kinase assay; format: biochemical; details: read-out: % AR (% kinase activity remaining)
PAK2 = PAK2 (Homo sapiens, UniProt Q13177); assay: ICKP radiometric kinase assay; format: biochemical; details: read-out: % AR (% kinase activity remaining)
MELK = MELK (Homo sapiens, UniProt Q14680); details: ref Chung et al., 2012; cited from earlier work

RIPK2, sequence (O43353 whole entry, species assumed): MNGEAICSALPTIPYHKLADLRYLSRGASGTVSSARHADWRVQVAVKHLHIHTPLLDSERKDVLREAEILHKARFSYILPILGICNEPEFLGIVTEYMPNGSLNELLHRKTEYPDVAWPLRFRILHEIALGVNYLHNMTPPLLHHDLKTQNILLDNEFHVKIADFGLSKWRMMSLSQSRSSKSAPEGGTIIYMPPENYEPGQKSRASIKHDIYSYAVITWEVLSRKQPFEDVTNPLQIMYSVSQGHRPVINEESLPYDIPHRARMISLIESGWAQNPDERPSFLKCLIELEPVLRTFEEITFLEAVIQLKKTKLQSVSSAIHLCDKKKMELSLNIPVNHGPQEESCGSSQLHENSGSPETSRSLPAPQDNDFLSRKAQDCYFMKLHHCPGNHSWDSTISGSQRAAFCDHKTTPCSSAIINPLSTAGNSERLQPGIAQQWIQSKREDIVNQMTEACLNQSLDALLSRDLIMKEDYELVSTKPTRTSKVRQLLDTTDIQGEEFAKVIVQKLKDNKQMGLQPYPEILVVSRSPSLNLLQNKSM
TrkA, sequence (P04629 33-796): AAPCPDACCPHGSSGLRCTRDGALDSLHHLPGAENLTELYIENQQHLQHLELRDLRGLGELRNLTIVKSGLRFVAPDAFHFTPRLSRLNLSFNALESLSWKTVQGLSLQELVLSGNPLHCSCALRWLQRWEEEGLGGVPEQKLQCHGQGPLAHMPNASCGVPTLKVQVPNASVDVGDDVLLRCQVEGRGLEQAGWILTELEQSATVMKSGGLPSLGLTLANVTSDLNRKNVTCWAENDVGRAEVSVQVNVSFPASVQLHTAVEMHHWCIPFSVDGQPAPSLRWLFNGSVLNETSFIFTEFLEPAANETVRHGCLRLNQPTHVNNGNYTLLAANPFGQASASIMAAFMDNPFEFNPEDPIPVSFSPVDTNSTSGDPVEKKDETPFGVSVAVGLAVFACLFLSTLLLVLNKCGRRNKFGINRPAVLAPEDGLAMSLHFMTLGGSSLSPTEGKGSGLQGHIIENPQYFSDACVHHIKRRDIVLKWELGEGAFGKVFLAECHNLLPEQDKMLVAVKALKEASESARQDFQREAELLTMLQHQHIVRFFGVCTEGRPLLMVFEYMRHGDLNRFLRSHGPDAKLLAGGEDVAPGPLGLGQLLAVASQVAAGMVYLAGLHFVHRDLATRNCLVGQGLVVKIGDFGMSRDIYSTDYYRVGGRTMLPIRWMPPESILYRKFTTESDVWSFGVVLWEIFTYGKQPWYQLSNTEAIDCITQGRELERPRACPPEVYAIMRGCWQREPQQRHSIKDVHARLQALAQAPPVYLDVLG
HIPK1, sequence (Q86Z02 whole entry): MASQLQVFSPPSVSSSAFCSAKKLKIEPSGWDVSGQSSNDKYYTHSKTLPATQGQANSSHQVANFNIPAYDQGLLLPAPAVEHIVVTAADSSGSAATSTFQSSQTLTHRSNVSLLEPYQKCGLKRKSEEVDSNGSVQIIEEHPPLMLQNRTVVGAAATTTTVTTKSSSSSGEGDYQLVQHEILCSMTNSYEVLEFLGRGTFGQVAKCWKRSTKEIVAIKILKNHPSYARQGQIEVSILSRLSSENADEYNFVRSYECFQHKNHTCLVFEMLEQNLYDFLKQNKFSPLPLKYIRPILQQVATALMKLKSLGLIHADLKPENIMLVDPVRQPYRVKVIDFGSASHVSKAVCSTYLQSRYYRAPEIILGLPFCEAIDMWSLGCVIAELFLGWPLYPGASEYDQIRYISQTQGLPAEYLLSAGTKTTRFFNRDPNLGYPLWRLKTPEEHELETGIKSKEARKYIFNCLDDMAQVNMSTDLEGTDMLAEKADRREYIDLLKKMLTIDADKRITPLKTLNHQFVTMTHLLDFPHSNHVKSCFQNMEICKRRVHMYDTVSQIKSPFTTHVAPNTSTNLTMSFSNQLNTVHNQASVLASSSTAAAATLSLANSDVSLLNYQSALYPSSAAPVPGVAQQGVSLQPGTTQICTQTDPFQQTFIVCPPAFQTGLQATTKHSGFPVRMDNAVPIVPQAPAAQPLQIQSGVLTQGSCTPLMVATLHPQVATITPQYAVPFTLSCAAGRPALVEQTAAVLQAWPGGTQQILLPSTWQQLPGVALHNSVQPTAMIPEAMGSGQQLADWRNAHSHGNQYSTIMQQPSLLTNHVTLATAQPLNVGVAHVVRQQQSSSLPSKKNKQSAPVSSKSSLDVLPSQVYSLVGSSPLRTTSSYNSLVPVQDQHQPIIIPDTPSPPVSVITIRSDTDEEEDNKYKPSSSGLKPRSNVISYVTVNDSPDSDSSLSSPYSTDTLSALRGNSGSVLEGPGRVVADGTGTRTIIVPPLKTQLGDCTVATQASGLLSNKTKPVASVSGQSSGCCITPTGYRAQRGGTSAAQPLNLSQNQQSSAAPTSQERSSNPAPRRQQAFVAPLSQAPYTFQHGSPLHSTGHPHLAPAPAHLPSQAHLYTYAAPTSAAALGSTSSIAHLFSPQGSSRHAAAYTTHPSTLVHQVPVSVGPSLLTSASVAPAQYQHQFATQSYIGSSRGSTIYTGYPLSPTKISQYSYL
PAK5, sequence (Q9P286 whole entry): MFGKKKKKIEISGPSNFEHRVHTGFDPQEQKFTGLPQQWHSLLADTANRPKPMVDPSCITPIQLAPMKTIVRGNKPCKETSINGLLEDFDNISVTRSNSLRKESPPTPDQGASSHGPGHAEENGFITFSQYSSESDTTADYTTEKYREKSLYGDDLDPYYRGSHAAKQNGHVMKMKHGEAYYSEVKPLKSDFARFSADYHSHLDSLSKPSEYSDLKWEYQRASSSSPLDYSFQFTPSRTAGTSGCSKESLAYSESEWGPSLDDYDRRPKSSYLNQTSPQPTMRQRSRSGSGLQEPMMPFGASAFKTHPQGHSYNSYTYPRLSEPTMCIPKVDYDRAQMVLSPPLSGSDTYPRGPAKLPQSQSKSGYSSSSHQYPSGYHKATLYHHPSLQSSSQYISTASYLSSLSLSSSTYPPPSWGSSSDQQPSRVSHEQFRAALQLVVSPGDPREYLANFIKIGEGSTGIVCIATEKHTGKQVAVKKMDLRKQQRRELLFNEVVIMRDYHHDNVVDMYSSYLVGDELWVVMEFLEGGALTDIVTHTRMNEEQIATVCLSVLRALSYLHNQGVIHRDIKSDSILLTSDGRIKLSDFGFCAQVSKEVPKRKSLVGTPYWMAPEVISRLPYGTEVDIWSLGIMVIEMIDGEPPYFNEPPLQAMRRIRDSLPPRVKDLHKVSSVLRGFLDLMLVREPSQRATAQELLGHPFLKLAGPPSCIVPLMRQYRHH
BRK, sequence (Q13882 whole entry): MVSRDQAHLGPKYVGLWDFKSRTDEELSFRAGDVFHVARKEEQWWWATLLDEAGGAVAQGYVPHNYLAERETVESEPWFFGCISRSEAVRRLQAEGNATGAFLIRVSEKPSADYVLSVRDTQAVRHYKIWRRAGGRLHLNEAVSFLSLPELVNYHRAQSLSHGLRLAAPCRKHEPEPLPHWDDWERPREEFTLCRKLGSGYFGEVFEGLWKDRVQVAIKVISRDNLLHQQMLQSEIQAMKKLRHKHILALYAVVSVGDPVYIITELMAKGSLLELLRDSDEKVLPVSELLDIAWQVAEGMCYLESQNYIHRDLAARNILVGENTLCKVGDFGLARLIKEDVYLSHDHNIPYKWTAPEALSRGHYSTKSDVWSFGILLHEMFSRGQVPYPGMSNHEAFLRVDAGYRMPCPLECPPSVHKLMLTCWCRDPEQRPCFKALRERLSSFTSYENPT
Aurora A, sequence (O14965 whole entry): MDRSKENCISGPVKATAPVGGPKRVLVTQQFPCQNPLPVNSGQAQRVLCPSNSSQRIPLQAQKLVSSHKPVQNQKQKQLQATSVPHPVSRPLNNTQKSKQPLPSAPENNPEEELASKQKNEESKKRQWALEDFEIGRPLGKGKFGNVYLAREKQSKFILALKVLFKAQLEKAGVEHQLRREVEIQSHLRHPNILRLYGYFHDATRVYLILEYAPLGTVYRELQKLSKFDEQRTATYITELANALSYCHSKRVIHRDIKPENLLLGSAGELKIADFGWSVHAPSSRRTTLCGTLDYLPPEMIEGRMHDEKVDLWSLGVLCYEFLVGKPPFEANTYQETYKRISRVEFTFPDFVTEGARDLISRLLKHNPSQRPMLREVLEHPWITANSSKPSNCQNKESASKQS
PKB beta, sequence (P31751 whole entry): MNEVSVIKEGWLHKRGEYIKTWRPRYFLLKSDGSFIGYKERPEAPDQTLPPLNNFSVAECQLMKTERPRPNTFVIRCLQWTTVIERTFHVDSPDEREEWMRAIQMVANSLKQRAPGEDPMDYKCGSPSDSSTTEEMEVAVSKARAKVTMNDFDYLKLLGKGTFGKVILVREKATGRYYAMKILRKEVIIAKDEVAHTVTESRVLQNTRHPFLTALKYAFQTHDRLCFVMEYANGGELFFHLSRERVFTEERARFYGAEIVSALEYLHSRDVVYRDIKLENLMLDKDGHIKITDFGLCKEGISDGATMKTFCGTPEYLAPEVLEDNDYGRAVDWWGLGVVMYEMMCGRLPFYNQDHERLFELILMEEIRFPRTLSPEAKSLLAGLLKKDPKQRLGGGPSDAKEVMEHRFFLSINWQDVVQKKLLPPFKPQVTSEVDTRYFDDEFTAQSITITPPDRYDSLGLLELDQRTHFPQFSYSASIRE
MKK1, sequence (Q02750 whole entry): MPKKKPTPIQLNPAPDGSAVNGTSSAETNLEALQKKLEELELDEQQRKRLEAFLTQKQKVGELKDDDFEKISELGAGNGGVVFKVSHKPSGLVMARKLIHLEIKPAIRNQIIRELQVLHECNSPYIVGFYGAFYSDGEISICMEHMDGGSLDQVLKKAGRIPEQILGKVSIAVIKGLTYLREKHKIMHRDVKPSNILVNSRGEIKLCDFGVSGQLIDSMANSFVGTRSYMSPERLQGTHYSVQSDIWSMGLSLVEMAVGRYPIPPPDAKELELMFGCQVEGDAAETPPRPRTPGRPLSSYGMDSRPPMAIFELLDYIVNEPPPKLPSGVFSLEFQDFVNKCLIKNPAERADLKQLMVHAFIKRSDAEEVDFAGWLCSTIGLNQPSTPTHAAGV

SMILES	remaining activity at 1 µM (ULK2) [%]	remaining activity at 1 µM (PAK6) [%]	remaining activity at 1 µM (HER4) [%]	remaining activity at 1 µM (p38 gamma) [%]	remaining activity at 1 µM (PDK1) [%]	remaining activity at 1 µM (NEK2a) [%]	IC50 (ZR-75-1) [nM]	remaining activity at 1 µM (MINK1) [%]	remaining activity at 1 µM (CK1 gamma 2) [%]	remaining activity at 1 µM (PAK5) [%]	remaining activity at 1 µM (MST2) [%]	remaining activity at 1 µM (TTK) [%]	remaining activity at 1 µM (PKC alpha) [%]	remaining activity at 1 µM (HIPK1) [%]	remaining activity at 1 µM (ERK5) [%]	remaining activity at 1 µM (DYRK3) [%]	remaining activity at 1 µM (RIPK2) [%]	remaining activity at 1 µM (IKK beta) [%]	remaining activity at 1 µM (DDR2) [%]	remaining activity at 1 µM (TrkA) [%]	further results
CN(C)C[C@H]1CC[C@H](N2C(=O)NCc3cnc4ccc(-c5cc(Cl)c(O)c(Cl)c5)cc4c32)CC1 [HTH-01-091, 9-(3,5-dichloro-4-hydroxyphenyl)-1-(trans-4-((dimethylamino)methyl)cyclohexyl)-3,4-dihydropyrimido[5,4 c]quinolin-2(1H)-one]	105	89	84	86	102	100	> 10000	38	80	73	45	53	79	24	70	5	3	104	44	53	IC50 (CDK7): 1230 nM; IC50 (DYRK3; radioactive filter-binding assay provided by the ICKP, read-out: Enzymatic IC50 DYRK3): 41.8 nM; IC50 (RIPK2; radioactive filter-binding assay provided by the ICKP, read-out: Enzymatic IC50 RIPK2): 42.5 nM; remaining activity at 1 µM (BRK): 96%; remaining activity at 1 µM (MKK1): 62%; remaining activity at 1 µM (TBK1): 88%; remaining activity at 1 µM (Aurora A): 98%; remaining activity at 1 µM (PKB beta): 88%; remaining activity at 1 µM (TGFBR1): 102%; remaining activity at 1 µM (PAK2): 88%
CC(=O)c1cnc2ccc(-c3cc(Cl)c(O)c(Cl)c3)nc2c1N[C@H]1CC[C@H](CN(C)C)CC1 [OTSSP167]	4	29	4	12	4	59	55	2	10	19	7	3	7	0	4	1	4	41	0	1	activity against MELK (MELK): subnanomolar; remaining activity at 1 µM (BRK): 8%; remaining activity at 1 µM (MKK1): 3%; remaining activity at 1 µM (TBK1): 6%; remaining activity at 1 µM (Aurora A): 10%; remaining activity at 1 µM (PKB beta): 24%; remaining activity at 1 µM (TGFBR1): 16%; remaining activity at 1 µM (PAK2): 74%

— PMC5605198, “MELK is not necessary for the proliferation of basal-like breast cancer cells” (eLife, 2017)
